Values joined by “and” are separate entries in the source; they are usually repeats but may differ in a detail not shown here. Equal values may be shown once. Inconclusive results and toxic doses are left out. The calls were made as follows: active = survival T/C of 150% or more; inactive = T/C below 125% in these data.
Tested on: CD2F1 mice, L1210 leukemia ip, survival T/C
Assay: NCI In Vivo Anticancer Drug Screen. Data for tumor model L1210 Leukemia (intraperitoneal) in CD2F1 (CDF1) mice
Settings: higher = longer survival
In short: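 Antitumor effect is scored in animals hosting a serially transplanted tumor. Values compare compound-dosed animals against vehicle-only controls as a simple quotient.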

[1] = endpoint: mean survival time, dose: 100.0 mg/kg/injection, schedule: Q01DX001 (ip), vehicle: saline with Tween-80
[2] = endpoint: mean survival time, dose: 100.0 mg/kg/injection, schedule: Q04DX003 (ip), vehicle: saline with Tween-80
[3] = endpoint: mean survival time, dose: 200.0 mg/kg/injection, schedule: Q04DX003 (ip), vehicle: saline with Tween-80
[4] = endpoint: mean survival time, dose: 400.0 mg/kg/injection, schedule: Q04DX003 (ip), vehicle: saline with Tween-80

Measured: T/C

CCOC(=O)C(F)(C(=O)OCC)[N+](=O)[O-]
inactive: endpoint: mean survival time, dose: 50.0 mg/kg/injection, schedule: Q04DX003 (ip), vehicle: saline 102 % of control | endpoint: mean survival time, dose: 100.0 mg/kg/injection, schedule: Q01DX001 (ip), vehicle: saline 101 % of control | endpoint: mean survival time, dose: 100.0 mg/kg/injection, schedule: Q04DX003 (ip), vehicle: saline 100 % of control | endpoint: mean survival time, dose: 200.0 mg/kg/injection, schedule: Q01DX001 (ip), vehicle: saline 104 % of control | endpoint: mean survival time, dose: 200.0 mg/kg/injection, schedule: Q04DX003 (ip), vehicle: saline 88 % of control

CCOc1cccc(Cc2cn(Cc3cccc(NC(=O)Nc4ccc(S(=O)(=O)F)cc4)c3)c(=O)[nH]c2=O)c1
inactive: [1] 86 % of control | endpoint: mean survival time, dose: 200.0 mg/kg/injection, schedule: Q01DX001 (ip), vehicle: saline with Tween-80 92 % of control | endpoint: mean survival time, dose: 400.0 mg/kg/injection, schedule: Q01DX001 (ip), vehicle: saline with Tween-80 86 % of control

CC1=NN(c2cc(Cl)c(S(=O)(=O)O)cc2Cl)C(=O)C1
inactive: endpoint: mean survival time, dose: 100.0 mg/kg/injection, schedule: Q01DX009 (ip), vehicle: saline with Tween-80 92 % of control | endpoint: mean survival time, dose: 200.0 mg/kg/injection, schedule: Q01DX009 (ip), vehicle: saline with Tween-80 92 % of control | endpoint: mean survival time, dose: 400.0 mg/kg/injection, schedule: Q01DX009 (ip), vehicle: saline with Tween-80 86 % of control

[CH3][Sn]([CH3])([Cl])[c]1cc[c]([Sn]([CH3])([CH3])[Cl])cc1
inactive: endpoint: median survival time, dose: 0.12 mg/kg/injection, schedule: Q01DX009 (ip), vehicle: saline 100 % of control | endpoint: median survival time, dose: 0.25 mg/kg/injection, schedule: Q01DX009 (ip), vehicle: saline 101 % of control | endpoint: median survival time, dose: 0.5 mg/kg/injection, schedule: Q01DX009 (ip), vehicle: saline 105 % of control | endpoint: median survival time, dose: 1.0 mg/kg/injection, schedule: Q01DX009 (ip), vehicle: saline 101 % of control and 108 % of control | endpoint: median survival time, dose: 2.0 mg/kg/injection, schedule: Q01DX009 (ip), vehicle: saline 108 % of control and 110 % of control

O=C(O)c1ccc([N+](=O)[O-])cc1C(=O)O.[NH-]C1CCCCC1[NH-].[Pt+2]
inactive: endpoint: median survival time, dose: 3.12 mg/kg/injection, schedule: Q04DX003 (ip), vehicle: saline 100 % of control and 110 % of control | endpoint: median survival time, dose: 6.25 mg/kg/injection, schedule: Q04DX003 (ip), vehicle: saline 121 % of control and 110 % of control | endpoint: median survival time, dose: 12.5 mg/kg/injection, schedule: Q04DX003 (ip), vehicle: saline 116 % of control | endpoint: median survival time, dose: 200.0 mg/kg/injection, schedule: Q04DX003 (ip), vehicle: saline 97 % of control
active: endpoint: median survival time, dose: 50.0 mg/kg/injection, schedule: Q04DX003 (ip), vehicle: saline 176 % of control | endpoint: median survival time, dose: 100.0 mg/kg/injection, schedule: Q04DX003 (ip), vehicle: saline 183 % of control and 282 % of control

COC1OC2COC(c3ccccc3)OC2/C(=N/O)C1[n+]1ccccc1 (stereo not drawn)
inactive: endpoint: mean survival time, dose: 25.0 mg/kg/injection, schedule: Q01DX001 (ip), vehicle: saline with Tween-80 94 % of control | endpoint: mean survival time, dose: 50.0 mg/kg/injection, schedule: Q01DX001 (ip), vehicle: saline with Tween-80 107 % of control | [1] 98 % of control and 102 % of control

NC1=NC(=O)/C(=C/c2ccccc2)S1
inactive: [2] 93 % of control | [3] 97 % of control | [4] 97 % of control

O=[As](O)(CC(O)c1ccccc1)c1cccc(Cl)c1 (stereo not drawn)
inactive: endpoint: mean survival time, dose: 6.25 mg/kg/injection, schedule: Q04DX003 (ip), vehicle: saline with Tween-80 104 % of control | endpoint: mean survival time, dose: 12.5 mg/kg/injection, schedule: Q04DX003 (ip), vehicle: saline with Tween-80 119 % of control

O=C(NC1CCCCC1)NC1CCC(CC2CCCCC2)CC1 (stereo not drawn)
inactive: [2] 98 % of control | [3] 96 % of control | [4] 96 % of control

CN(C)N=Nc1ccc(NC(N)=O)cc1
active: endpoint: mean survival time, dose: 37.5 mg/kg/injection, schedule: Q01DX009 (ip), vehicle: Klucel (hydroxypropylcellulose) (HPC) 158 % of control | endpoint: mean survival time, dose: 50.0 mg/kg/injection, schedule: Q01DX009 (ip), vehicle: saline with Tween-80 159 % of control
inactive: endpoint: mean survival time, dose: 6.25 mg/kg/injection, schedule: Q01DX009 (ip), vehicle: saline with Tween-80 108 % of control | endpoint: mean survival time, dose: 6.25 mg/kg/injection, schedule: Q01DX009 (ip), vehicle: saline 118 % of control | endpoint: mean survival time, dose: 12.5 mg/kg/injection, schedule: Q01DX009 (ip), vehicle: saline with Tween-80 113 % of control | endpoint: mean survival time, dose: 12.5 mg/kg/injection, schedule: Q01DX009 (ip), vehicle: saline 111 % of control | endpoint: mean survival time, dose: 25.0 mg/kg/injection, schedule: Q01DX009 (ip), vehicle: saline with Tween-80 118 % of control

Nc1nc(Cl)cc(-c2ccccc2)n1
inactive: [2] 102 % of control | [3] 90 % of control | [4] 90 % of control

From PubChem BioAssay AID256 (DTP/NCI, 2004)
